Measured values from PubChem BioAssay (NCI).
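Where inhibition never reached the appropriate level, the endpoint shown equals the highest concentration tested. Otherwise, values were interpolated linearly from a five-concentration, 48-hour dose response in 96-well plates. Definition used: TGI = concentration required for complete inhibition of growth.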

How the values were obtained:
Experiment in all cases: NCI-60 cell line screen, 48 h
786-0 renal = tested on: 786-0 renal
A498 renal = tested on: A498 renal
A549 NSCLC = tested on: A549 NSCLC
ACHN renal = tested on: ACHN renal
CAKI-1 renal = tested on: CAKI-1 renal
CCRF-CEM leukemia = tested on: CCRF-CEM leukemia
COLO 205 colon = tested on: COLO 205 colon
DU-145 prostate = tested on: DU-145 prostate
EKVX NSCLC = tested on: EKVX NSCLC
HCC-2998 colon = tested on: HCC-2998 colon
HCT-116 colon = tested on: HCT-116 colon
HCT-15 colon = tested on: HCT-15 colon
HL-60(TB) leukemia = tested on: HL-60(TB) leukemia
HOP-62 NSCLC = tested on: HOP-62 NSCLC
HOP-92 NSCLC = tested on: HOP-92 NSCLC
HS 578T breast = tested on: HS 578T breast
HT29 colon = tested on: HT29 colon
IGROV1 ovarian = tested on: IGROV1 ovarian
K-562 leukemia = tested on: K-562 leukemia
KM12 colon = tested on: KM12 colon
LOX IMVI melanoma = tested on: LOX IMVI melanoma
M14 melanoma = tested on: M14 melanoma
MALME-3M melanoma = tested on: MALME-3M melanoma
MCF7 breast = tested on: MCF7 breast
MDA-MB-231 breast = tested on: MDA-MB-231 breast
MDA-MB-435 = tested on: MDA-MB-435
MDA-N = tested on: MDA-N
MOLT-4 leukemia = tested on: MOLT-4 leukemia
NCI-H226 lung = tested on: NCI-H226 lung
NCI-H23 lung = tested on: NCI-H23 lung
NCI-H460 lung = tested on: NCI-H460 lung
NCI-H522 lung = tested on: NCI-H522 lung
NCI/ADR-RES ovarian = tested on: NCI/ADR-RES ovarian
OVCAR-3 ovarian = tested on: OVCAR-3 ovarian
OVCAR-4 ovarian = tested on: OVCAR-4 ovarian
OVCAR-5 ovarian = tested on: OVCAR-5 ovarian
OVCAR-8 ovarian = tested on: OVCAR-8 ovarian
RPMI-8226 leukemia = tested on: RPMI-8226 leukemia
RXF 393 renal = tested on: RXF 393 renal
SF-268 CNS = tested on: SF-268 CNS
SF-295 CNS = tested on: SF-295 CNS
SF-539 CNS = tested on: SF-539 CNS
SK-MEL-2 melanoma = tested on: SK-MEL-2 melanoma
SK-MEL-28 melanoma = tested on: SK-MEL-28 melanoma
SK-MEL-5 melanoma = tested on: SK-MEL-5 melanoma
SK-OV-3 ovarian = tested on: SK-OV-3 ovarian
SN12C renal = tested on: SN12C renal
SNB-19 CNS = tested on: SNB-19 CNS
SNB-75 CNS = tested on: SNB-75 CNS
SR leukemia = tested on: SR leukemia
SW-620 colon = tested on: SW-620 colon
T-47D breast = tested on: T-47D breast
TK-10 renal = tested on: TK-10 renal
U251 CNS = tested on: U251 CNS
UACC-257 melanoma = tested on: UACC-257 melanoma
UACC-62 melanoma = tested on: UACC-62 melanoma
UO-31 renal = tested on: UO-31 renal
BT-549 breast = tested on: BT-549 breast
PC-3 prostate = tested on: PC-3 prostate

Measured: TGI

COC(=O)[C@@H]1CN(C(=O)c2ccccc2)C(=O)N1C(=O)OCc1ccccc1
not listed: BT-549 breast | PC-3 prostate
> 100 µM: all other assays above

COC(=O)c1c(-c2ccc(Cl)cc2)cc2c3ccccc3n(C)c2c1C(=O)OC
not listed: HCC-2998 colon | RPMI-8226 leukemia | RXF 393 renal | SNB-75 CNS | SR leukemia | T-47D breast
> 100 µM: all other assays above
